Source: US20040223983A1, “Pharmaceutical preparations, use of these preparations and process for increasing the biovailability of pharmaceutical substances to be administered perorally” (priority 2002, published 2004)
≈ marks a conversion by molar mass, not a printed value. Where “and” joins values, the source holds several entries; their conditions need not be identical. Equal values may be shown once. Read-outs that look alike come from different tables or passages of the source. Blank lines part the entries; values can stand above or below the compound they belong to.

What was measured:
[1] = target: T1, Recombinant, Human Cytochrome P450 2C19 Isoenzyme (Homo sapiens, UniProt P33261); test: Cytochrome P450 inhibition test, in vitro CYP test (2C19); type: biochemical
T1 construct: purchased Gentest Corp., Woburn, Mass., USA
Experimental: (§1) In this connection, the inhibition of the enzymes is characterized via the concentration (IC50, μg/ml) of the adjuvants, in which 50% of the respective isoenzymes are inhibited.
(§2) Stock solutions of the respective test substances or test formulations are produced in acetonitrile and diluted with incubation buffer (3 mg/ml in 2% acetonitrile in the batch); additional concentrations are produced by serial dilution. Concentration of the acetonitrile is at most 2% in all batches.
The incubations are set in 96-hole plate format with 200 μl of total volume in double values. The background batch controls the fluorescence of the batch without enzymes and formulations according to the invention, and the inherent fluorescence of the substances is determined in the buffer dilution. The preparation of the dilutions and the pipetting diagram corresponds to the original instructions of the manufacturer of the test kit (Gentest Corp., Woburn, Mass., USA).
(§3) The batches are started by adding the enzyme/substrate mixture, shaken for 30 or 45 minutes in an incubator at 37° C. and then interrupted with 50 μl of stop solution. The plates are briefly shaken, and the fluorescence intensity is measured in the plate-fluorescence reader at the wavelengths for excitation or emission.
(§4) The development of the fluorescent product forms the basis for the calculation. […] The IC50 value is calculated from the concentration-dependent inhibition.

[2] = target: human, intestinal P-gp- transporters (Homo sapiens, UniProt P08183); test: P-gp- transporter test (calcein AM, MATU cells); conditions: ratio of fluorescence intensity test solution to blank
From the text: In this test, the activity to inhibit the transporters is characterized via ratio (R) that indicates the ratio of the fluorescence intensity of the test solution to the fluorescence intensity of the blank and is directly proportional to inhibiting the P-gp- transporters. Fluorescence intensity test solution corresponds to fluorescence intensity, measured at 485/535 nm (excitation or emission), of cells that contain test solution and calcein AM working solution.
For this purpose, a suspension of human breast cancer cell lines, MATU-cell lines (Max-Dellbrück-Centrum (MDC)-Berlin-Buch; 40,000 cells/well/200 μl) is first added to a microtiter plate (Greiner black 96 plates, clear bottom, sterile). […]
Then, the addition of calcein AM working solution (20 μl/well) to all wells is carried out, i.e., with and without test solution. […] After incubation is completed, the fluorescence is measured in a plate-fluorescence reader (Fluostar®, B&L Systems, Maarssen) at 485/535 nm (excitation or emission).
The following ratio: ratio (R) of the fluorescence intensity of the test solution to the fluorescence intensity of the blank is determined.
The fluorescence intensity of the test solution corresponds to the fluorescence intensity, measured at 485/535 nm (excitation or emission), of the cells that contain the test solution and the calcein AM working solution.

[3] = target: T2, Recombinant, Human Cytochrome P450 2C9 Isoenzyme (Homo sapiens, UniProt P11712); test: Cytochrome P450 inhibition test, in vitro CYP test (2C9); conditions: substrate 7-MFC, 45 minutes, 37° C.
Experimental: as §1, §2
(§5) The incubations are set in 96-hole plate format with 200 μl of total volume in double values. The background batch controls the fluorescence of the batch without enzymes and formulations according to the invention, and the inherent fluorescence of the substances is determined in the buffer dilution. […]
as §3, §4

[4] = target: T3, Recombinant, Human Cytochrome P450 3A4 Isoenzyme (Homo sapiens, UniProt P08684); test: Cytochrome P450 inhibition test, in vitro CYP test (3A4); conditions: substrate 7-BFC, 30 minutes, 37° C.
Experimental: as §1, §2, §5, §3, §4

[5] = target: T2, Recombinant, Human Cytochrome P450 2C9 Isoenzyme
Experimental: as §1, §2, §5, §3, §4

[6] = target: T3, Recombinant, Human Cytochrome P450 3A4 Isoenzyme
Experimental: as §1, §2, §5, §3, §4

[7] = target: T4, 17β-HSD2 (Homo sapiens, UniProt P37059); test: Metabolic stability, in vitro 17β-HSD2 test on intestinal microsomes; type: in vitro ADME; conditions: % of starting value of AE2, n=2
T4 construct: Intestinal microsomes (InVitro Technologies); protein content: 24 mg/ml; tissue InVitro Technologies; host or cells: intestinal microsomes
T4 sequence (P37059 1-387): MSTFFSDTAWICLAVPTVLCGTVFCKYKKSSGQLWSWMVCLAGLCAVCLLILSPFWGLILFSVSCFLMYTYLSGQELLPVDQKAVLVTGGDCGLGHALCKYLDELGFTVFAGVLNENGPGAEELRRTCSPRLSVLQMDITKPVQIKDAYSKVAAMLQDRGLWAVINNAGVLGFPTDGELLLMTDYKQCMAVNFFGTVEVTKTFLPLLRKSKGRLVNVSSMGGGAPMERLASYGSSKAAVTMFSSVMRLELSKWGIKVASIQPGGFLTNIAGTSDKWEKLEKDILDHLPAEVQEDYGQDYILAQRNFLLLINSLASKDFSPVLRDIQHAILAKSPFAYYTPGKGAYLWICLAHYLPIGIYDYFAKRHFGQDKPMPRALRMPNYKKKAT
From the text: Pharmaceutical preparations according to the invention that contain steroids that have a secondary, beta-position hydroxyl group in 17-position of the sterane skeleton inhibit the 17β-HSD 2, so that less 17-keto-biotransformation product is produced. The inhibition potential is directly proportional to the mass proportion of the formulation according to the invention. […] Example 5; FIG. 3). It can be seen from this that formulations according to the invention are suitable to inhibit 17β-HSD 2.
17β-HSD2 test on microsomes of intestinal origin. Metabolic stability of 0.3 μM of AE2 in an intestinal microsome suspension and production of 17-ketone metabolites after 30 minutes based on the concentration (m/v) of a formulation according to the invention that contains Cremophor®EL and Transcutol®P, Smix 9:1, 20% (m/m), Miglyol®812.
A formulation according to the invention, produced analogously to Example 1a) and containing Cremophor®EL and Transcutol®P, Smix 9:1, 20% (m/m) Miglyol®812, is tested for its property to inhibit 17β-HSD2 in intestinal microsomes. 17β-HSD2 mediates the intestinal enzymatic dehydrogenation of an OH group in 17-position of the sterane skeleton to form a ketone group. An inhibition of the 17β-HSD2 is measured via a test substance AE2, which is the substrate of this enzyme, and is biotransformed into a 17-keto product. The ratio of the AE2 concentration and the 17-ketone-biotransformation product is determined at specific times (0, 10, 20, 30, 45 and 60 minutes) in each case for the starting-AE2 concentration in % (m/m).
For these tests, the following materials are used:
Na-Phosphate buffer: 100 mmol of Na2HPO4×2H2O and 100 mmol of NaH2PO4×H2O
Test substance solution of AE2: AE2 50 μmol in MeOH (in the test batch 0.3 μmol)
Formulation batches of the above-mentioned formulation according to the invention (% m/v): 0%, 0.00441%, 0.0147%, 0.0441%, 0.147% and 0.441% formulation in Na-phosphate buffer (in the test batch 0%, 0.003%, 0.01%, 0.03%, […] and 0.3% formulation).
Cofactor solution: 2 ml of glucose-6-phosphate (160 mmol)/MgCl2 (80 mmol)-mixture is added to 400 μl of a glucose-6-phosphate-dehydrogenase solution, then 15.6 mg of NADP and 13.4 mg of NAD are added.
Microsome solution: Intestinal microsomes (InVitro Technologies; protein content: 24 mg/ml; CYP450 content; 0.058 nmol/mg of protein) Thawed in a water bath at 37° C. (˜60 seconds) and diluted to a concentration of 5 mg/ml of protein with Na-phosphate buffer.
In each case, 170 μl/well of the formulation buffer and 5 μl/well of test substance solution of AE2 are introduced into the corresponding wells, whereby double values are set for each measuring time (0, 10, 20, 30, 45 and 60 minutes).
In each case, 250 μl of ice-cold MeOH is added at the 0-minute values. Immediately after, 25 μl of microsome solution and 50 μl of cofactor solution are added to all wells. The samples of the 0-minute values are stored without incubation at ˜−20° C. for about 24 hours. The other samples are incubated in each case for 10, 20, 30, 45 and 60 minutes at 37° C., and the dehydrogenation reaction is stopped after these times by the addition of 250 μl of ice-cold MeOH in each case. The samples are stored for about 24 hours before they are measured by HPLC at ˜−20° C. and they are centrifuged before HPLC analysis at 3000 rpm, whereby the supernatant is measured.

[8] = Lipophilicity (log P); type: physicochemical

T1 sequence (P33261 whole entry): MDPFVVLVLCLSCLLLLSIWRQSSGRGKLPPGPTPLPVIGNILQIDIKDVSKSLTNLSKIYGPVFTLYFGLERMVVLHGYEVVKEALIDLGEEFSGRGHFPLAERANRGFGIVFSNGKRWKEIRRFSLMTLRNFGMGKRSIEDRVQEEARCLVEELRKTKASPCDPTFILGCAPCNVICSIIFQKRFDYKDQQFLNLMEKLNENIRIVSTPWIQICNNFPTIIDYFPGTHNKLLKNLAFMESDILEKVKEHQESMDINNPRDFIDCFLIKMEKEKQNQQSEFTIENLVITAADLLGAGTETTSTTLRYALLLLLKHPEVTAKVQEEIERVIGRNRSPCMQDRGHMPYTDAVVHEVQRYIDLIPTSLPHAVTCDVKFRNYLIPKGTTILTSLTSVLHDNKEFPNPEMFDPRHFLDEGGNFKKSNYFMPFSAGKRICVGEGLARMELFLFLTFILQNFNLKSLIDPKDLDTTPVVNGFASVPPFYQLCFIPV
T3 sequence (P08684 whole entry): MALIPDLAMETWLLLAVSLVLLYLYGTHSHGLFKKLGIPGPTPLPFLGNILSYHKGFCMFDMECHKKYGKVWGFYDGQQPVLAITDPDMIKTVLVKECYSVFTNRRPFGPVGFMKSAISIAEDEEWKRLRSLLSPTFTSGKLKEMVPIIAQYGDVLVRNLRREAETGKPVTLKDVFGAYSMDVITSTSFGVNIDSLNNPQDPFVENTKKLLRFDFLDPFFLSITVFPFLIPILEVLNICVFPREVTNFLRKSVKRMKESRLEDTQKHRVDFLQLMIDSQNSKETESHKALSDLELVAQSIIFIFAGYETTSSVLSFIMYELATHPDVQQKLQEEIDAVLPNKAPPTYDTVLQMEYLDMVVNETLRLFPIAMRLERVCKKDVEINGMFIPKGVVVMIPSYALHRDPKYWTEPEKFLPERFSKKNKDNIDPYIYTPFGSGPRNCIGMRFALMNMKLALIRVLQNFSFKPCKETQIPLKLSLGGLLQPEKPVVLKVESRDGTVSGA
T2 sequence (P11712 whole entry): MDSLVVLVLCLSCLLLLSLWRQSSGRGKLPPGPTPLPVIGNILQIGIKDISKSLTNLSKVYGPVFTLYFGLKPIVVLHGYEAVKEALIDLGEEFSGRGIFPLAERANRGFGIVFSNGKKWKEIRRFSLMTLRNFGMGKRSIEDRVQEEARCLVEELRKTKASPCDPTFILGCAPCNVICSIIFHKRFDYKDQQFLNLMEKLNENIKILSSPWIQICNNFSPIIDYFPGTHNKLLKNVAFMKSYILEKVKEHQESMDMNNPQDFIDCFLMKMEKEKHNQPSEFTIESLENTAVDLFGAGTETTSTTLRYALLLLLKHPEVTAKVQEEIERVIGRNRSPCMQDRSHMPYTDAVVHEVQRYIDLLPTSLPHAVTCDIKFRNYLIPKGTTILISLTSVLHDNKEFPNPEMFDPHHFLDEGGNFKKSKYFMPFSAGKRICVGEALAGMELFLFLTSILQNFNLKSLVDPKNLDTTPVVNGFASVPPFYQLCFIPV
Sequence of human, intestinal P-gp- transporters (P08183 whole entry): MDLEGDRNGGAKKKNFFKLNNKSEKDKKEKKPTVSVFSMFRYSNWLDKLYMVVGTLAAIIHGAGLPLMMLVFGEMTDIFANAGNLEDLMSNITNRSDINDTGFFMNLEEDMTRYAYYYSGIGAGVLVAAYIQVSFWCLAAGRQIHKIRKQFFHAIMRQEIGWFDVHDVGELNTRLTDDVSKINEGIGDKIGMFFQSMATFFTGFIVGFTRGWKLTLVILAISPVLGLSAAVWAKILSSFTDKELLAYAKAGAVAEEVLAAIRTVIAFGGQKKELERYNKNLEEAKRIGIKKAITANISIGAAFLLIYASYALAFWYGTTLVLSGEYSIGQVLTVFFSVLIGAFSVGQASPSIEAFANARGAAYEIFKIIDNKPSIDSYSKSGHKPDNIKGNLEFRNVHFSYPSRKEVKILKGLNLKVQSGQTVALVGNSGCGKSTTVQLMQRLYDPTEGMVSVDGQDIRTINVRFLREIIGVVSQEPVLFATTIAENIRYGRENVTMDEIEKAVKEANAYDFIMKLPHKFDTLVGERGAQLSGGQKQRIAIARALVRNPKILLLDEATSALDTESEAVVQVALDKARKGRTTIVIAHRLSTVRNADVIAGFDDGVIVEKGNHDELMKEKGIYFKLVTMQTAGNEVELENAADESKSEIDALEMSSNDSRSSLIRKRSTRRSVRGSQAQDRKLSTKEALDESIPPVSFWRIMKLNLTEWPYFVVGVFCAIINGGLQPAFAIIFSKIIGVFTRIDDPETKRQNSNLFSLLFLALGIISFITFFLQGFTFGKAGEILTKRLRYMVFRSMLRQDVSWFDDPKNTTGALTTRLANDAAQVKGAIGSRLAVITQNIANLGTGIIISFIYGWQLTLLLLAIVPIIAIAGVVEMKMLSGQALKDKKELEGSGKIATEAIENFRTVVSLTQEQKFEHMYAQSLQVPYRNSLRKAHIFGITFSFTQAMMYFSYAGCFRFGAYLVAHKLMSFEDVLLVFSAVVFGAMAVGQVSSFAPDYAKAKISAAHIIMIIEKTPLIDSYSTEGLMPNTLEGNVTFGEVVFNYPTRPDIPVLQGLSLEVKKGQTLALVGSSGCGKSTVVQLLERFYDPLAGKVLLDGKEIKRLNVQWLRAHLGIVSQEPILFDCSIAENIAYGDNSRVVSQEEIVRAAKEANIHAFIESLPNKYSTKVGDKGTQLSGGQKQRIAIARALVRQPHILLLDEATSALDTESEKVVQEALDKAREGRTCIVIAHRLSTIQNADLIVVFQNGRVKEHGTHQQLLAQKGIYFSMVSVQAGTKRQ

- IC50 CYP-2C19 [1]: 1400 µg/mL (≈ 10.4 mM)
- Maximum R-Value ([2]; calcein AM, 485/535 nm, MATU cells, test solutions 0.3 to 33.3 μmol): 1.18
- IC50 CYP-2C9 [3]: 1500 µg/mL (≈ 11.2 mM)
- IC50 CYP-3A4 [4]: 755 µg/mL (≈ 5.63 mM)
Compound: CCOCCOCCO [Transcutol ® P, Ethoxydiglycol]

- IC50 CYP-2C19 [1]: 325 µg/mL (≈ 1.05 mM)
- IC50 CYP-2C9 [5]: 195 µg/mL (≈ 0.628 mM)
- IC50 CYP-3A4 [6]: 117 µg/mL (≈ 0.377 mM)
Compound: CCCCCCCC/C=C\CCCCCCCC(=O)OCC [Ethyl oleate, Ethyl oleate (EO)]

Compound: CN(CCCCCCC(F)(F)C(F)(F)C(F)(F)C(F)(F)F)CCCCC[C@@H]1Cc2cc(O)ccc2[C@@H]2[C@@H]1[C@@H]1CC[C@H](O)[C@@]1(C)C[C@@H]2F [AE2, 11β-fluoro-7α-{5-[methyl-(7,7,8,8,9,9,10,10,10-nonafluorodecyl)amino]pentyl}estra-1,3,5(10)-triene-3,17β-diol]
- amount of genuine AE2 after 30 minutes in the microsome suspension ([7]; 0.0% Cremophor EL/Miglyol 812/Transcutol P (72T/20T/8T) in test batch): 64% and 66%
- amount of genuine AE2 after 30 minutes in the microsome suspension ([7]; 0.003% Cremophor EL/Miglyol 812/Transcutol P (72T/20T/8T) in test batch): 70% and 71%
- amount of genuine AE2 after 30 minutes in the microsome suspension ([7]; 0.01% Cremophor EL/Miglyol 812/Transcutol P (72T/20T/8T) in test batch): 75% and 76%
- amount of genuine AE2 after 30 minutes in the microsome suspension ([7]; 0.03% Cremophor EL/Miglyol 812/Transcutol P (72T/20T/8T) in test batch): 89% and 83%
- amount of genuine AE2 after 30 minutes in the microsome suspension ([7]; 0.1% Cremophor EL/Miglyol 812/Transcutol P (72T/20T/8T) in test batch): 109% and 114%
- amount of genuine AE2 after 30 minutes in the microsome suspension ([7]; 0.3% Cremophor EL/Miglyol 812/Transcutol P (72T/20T/8T) in test batch): 106% and 109%
- logP [8]: 5.9

- IC50 CYP-2C19 [1]: 100 µg/mL
Compound: C8-C12 triglycerides (MCT) [Miglyol ® 812]

- IC50 CYP-2C19 [1]: 0.7 µg/mL
Compound: PEG-400-monoricinoleate [Estax ® 54]

- IC50 CYP-2C19 [1]: 8.4 µg/mL
Compound: Polysorbate 80 [Tween ® 80]

- IC50 CYP-2C19 [1]: >3000 µg/mL
Compound: Refined castor oil (RIZ)

- IC50 CYP-2C19 [1]: 11 µg/mL
Compound: PEG-40-hydrogenated castor oil [Cremophor ® RH40]

- R ([2]; P-gp substrate): 2.43
Compound: CN(CCCCC[C@@H]1Cc2cc(O)ccc2[C@@H]2[C@@H]1[C@@H]1CC[C@H](O)[C@@]1(C)C[C@@H]2F)CCCSCCCC(F)(F)C(F)(F)F [AE1, 11β-fluoro-7α-{5-[N-methyl-N-3-(4,4,5,5,5-pentafluoropentylthio)-propylamino]-pentyl}-estra-1,3,5(10)-triene-3,17β-diol]

- IC50 CYP-2C19 [1]: 10 µg/mL
Compound: Polyethylene glycol-35-castor oil [Cremophor ® EL]
